{"source": "patent US10265329B2", "about": "“Altering steroid metabolism for treatment of steroid-dependent disease” (THE CLEVELAND CLINIC FOUNDATION, priority 2015, dated 2019)", "key": {"LNCaP cells": {"tested_on": "LNCaP cells", "assay": "Cell proliferation assay, DHT-stimulated growth", "format": "cell-based, human", "settings": "DHT 0.5 nM, 2, 4 and 6 days", "method": "LNCaP cells (0.1 million/mL) were seeded in 96-well plates and cultured in phenol red free RPMI-1640 mediums plus 10% charcoal stripped FBS with androgens and/or drugs. Medium was changed every other day. After 2, 4 or 6 days, cells were collected and lysed after treatment. Growth was then determined based on DNA content as detected by Hoechst stain and a Wallac Victor2 1420 Multilabel counter (Perkin Elmer). Two-tailed student's t-test was used to determine significance."}, "3βHSD": {"target": "T1, 3βHSD (Homo sapiens, UniProt P14060)", "T1 construct": "endogenous in cells; host or cells: LNCaP, VCaP", "T1 sequence (P14060 2-373 limits assumed)": "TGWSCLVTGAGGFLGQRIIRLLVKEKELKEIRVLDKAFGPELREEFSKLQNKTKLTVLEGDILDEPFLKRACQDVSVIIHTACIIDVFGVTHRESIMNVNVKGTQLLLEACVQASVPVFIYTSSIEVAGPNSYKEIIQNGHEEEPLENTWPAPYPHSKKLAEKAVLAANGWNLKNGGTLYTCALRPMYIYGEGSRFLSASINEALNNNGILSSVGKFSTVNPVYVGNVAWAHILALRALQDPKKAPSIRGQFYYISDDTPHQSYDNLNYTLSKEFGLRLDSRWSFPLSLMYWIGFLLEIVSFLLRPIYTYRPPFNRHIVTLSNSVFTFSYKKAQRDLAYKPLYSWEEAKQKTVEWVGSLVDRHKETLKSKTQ", "assay": "Xenograft metabolism: [3H]-DHEA to AD in minced xenograft tumors", "settings": "LNCaP and VCaP xenografts, 0.1-10 μM", "method": "Cell Line Metabolism: Cells were seeded and incubated in 12-well plates with 0.2 million cells/well for ˜24 h and then incubated with a mixture of radioactive ([^3H]-labeled) and non-radioactive androgens (final concentration, 100 nM; ˜1,000,000 cpm/well; PerkinElmer, Waltham, Mass.) at 37° C. Aliquots of medium were collected at the indicated times. Collected medium was treated with 1,000 units of β-glucuronidase (Helix pomatia; Sigma-Aldrich) at 65° C. for 2 h, extracted with 860 μL ethyl acetate:isooctane (1:1), and concentrated under nitrogen gas. Xenograft Metabolism: 10^7 LNCaP or VCaP cells were injected subcutaneously with Matrigel into surgically orchiectomized NSG mice that were implanted with 5 mg 90-day sustained-release DHEA pellets (Innovative Research of American, Sarasota, Fla.). […] Each xenograft was analyzed in triplicate in at least three independent experiments. […]\nDried samples were reconstituted in 50% methanol and injected into the HPLC. […] Alternatively, dried samples were applied to plastic-backed silica gel plates and separated by thin-layer chromatography (TLC) using a mobile phase of 3:1 chloroform:ethyl acetate, followed by exposure of the plates to a phosphorimager screen and quantitated with a Storm model 860 phosphorimager (Applied Biosystems, Foster City, Calif.). […]"}}, "data": [{"smiles": "C[C@]12CCC(=O)C=C1CC[C@@H]1[C@@H]2CC[C@]2(C)C(c3cccnc3)=CC[C@@H]12", "note": "[Compound D4A, 17-(3-Pyridyl)androsta-4,16-dien-3-one]", "values": [{"measurement": "effect on DHT-stimulated cell growth", "setting": "LNCaP cells", "value": "more potent than Abi"}, {"measurement": "potency relative to Abi in blocking conversion from DHEA by 3βHSD to AD", "setting": "3βHSD", "value": 10, "unit": "fold"}]}]}
